Test results published in US9212168B2 (priority 2011, dated 2015).

tested on: HCV genotype 1a replicon; assay: HCV genotype 1a replicon assay (NS3 protease activity readout); type: cell-based, hepatitis C virus; settings: HCV genotype 1a replicon
Procedure: Assay 2: HCV Genotype 1a Replicon Assay
The HCV genotype 1a replicon cell line was obtained from Apath LLC (APC89; Huh7.5 cell background). This subgenomic replicon contains the N-terminus of the HCV core protein fused to the neomycin-resistance selectable marker. The EMCV IRES lies downstream and drives expression of the non-structural proteins NS3-NS5B. Compound potencies were determined using the NS3-specific protease activity in lysates as a measurement of compound inhibition of replicon levels.
Cells were grown at 37° C. in a 5% CO2 humidified incubator in DMEM (Invitrogen) with 10% FBS (HyClone), 1×NEAA (Invitrogen), 1× Pen-Strep (Invitrogen), and 850 μg/mL G418 (Invitrogen). On day 1 of the assay, cells were plated at 15,000 cells/well in black 96-well tissue culture plates (Costar) in 200 μL media lacking G418. Four hours later, once the cells had adhered, the media was removed and replaced with media (no G418) containing dose-responses of test compounds. Compounds were initially diluted in DMSO and then diluted another 200× in media to bring the final DMSO concentration down to 0.5%. The cells were incubated with test compounds for 48 or 72 hours. At the end of the incubation period, media and compound were removed from the plates.
To determine the NS3-specific protease activity in lysates, the cells were lysed at room temperature in 50 μL/well of 50 mM Hepes pH 7.5, 150 mM NaCl, 15% Glycerol, 0.15% Triton X-100, 10 mM DTT for 20 minutes with shaking. 50 μL of an NS3/4a protease-specific FRET substrate (Anaspec RET S1 Cat#22991) was then added to the wells at a final concentration of 15 μM. The plates were incubated at 37° C. for 20 minutes, which corresponds to a timepoint at which the protease activity is still in the linear phase. Protease activity was determined by measuring fluorescence (Excitation: 340 nm; Emission: 509 nm).
To analyze the data, the fluorescence was plotted vs. the compound concentration, and EC50 values were determined from a 4-parameter robust fit model using GraphPad Prism software.

Row | Structure (SMILES) | Genotype 1a
1 | COC(=O)N[C@H](C(=O)N1C[C@@H](OC)C[C@H]1c1nc(-c2ccc(-c3cc(Cl)c(NC(=O)c4ccc(N5CCN(C(=O)C(C)(C)CO)C[C@H]5C)nc4)cc3C(F)(F)F)cc2)c[nH]1)C1CCOCC1 [Example 19-13] | D (D represents pEC50>10 (EC50<0.1 nM))
2 | CC[C@@H](C)C(=O)N1CCN(c2ccc(C(=O)Nc3cc(OC(F)(F)F)c(-c4ccc(-c5c[nH]c([C@@H]6C[C@H](C)CN6C(=O)[C@@H](NC(=O)OC)C(C)C)n5)cc4)cc3Cl)cn2)[C@H](C)C1 [Example 1-86] | D (D represents pEC50>10 (EC50<0.1 nM))
3 | COC(=O)N[C@H](C(=O)N1C[C@@H](C)C[C@H]1c1nc(-c2ccc(-c3ccc(NC(=O)c4ccc(N5CCN(C(=O)C6CC6)C[C@H]5C)nc4)cc3C(F)(F)F)cc2)c[nH]1)C(C)C [Example 1-65] | C (C represents pEC50 between and 9 and about 10, (EC50 between 1 nM and 0.1 nM))
4 | CCCCC(=O)N1CCN(c2ccc(C(=O)Nc3cc(OC(F)(F)F)c(-c4ccc(-c5c[nH]c([C@@H]6C[C@H](C)CN6C(=O)[C@@H](NC(=O)OC)C(C)C)n5)cc4)cc3Cl)cn2)[C@H](C)C1 [Example 1-71] | C (C represents pEC50 between and 9 and about 10, (EC50 between 1 nM and 0.1 nM))
5 | COC(=O)NC(C(=O)N1CC(OC)CC1c1nc(-c2ccc(-c3cc(Cl)c(NC(=O)c4ccc(N5CCN(C(=O)C(C)(C)CO)CC5C)nc4)cc3OC(F)(F)F)cc2)c[nH]1)C(C)OC (centres unmarked) [Example 16-8] | D (D represents pEC50>10 (EC50<0.1 nM))
6 | CNC(=O)N1C[C@@H](C)N(c2ccc(C(=O)Nc3cc(OC(F)(F)F)c(-c4ccc(-c5c[nH]c([C@@H]6C[C@H](C)CN6C(=O)[C@@H](NC(=O)OC(C)C)C(C)C)n5)cc4)cc3Cl)cn2)C[C@@H]1C [Example 7-5] | B (B represents pEC50 between 8 and 9 (EC50 between 1 and 10 nM))
7 | CCCC(=O)N1CCN(c2ccc(C(=O)Nc3cc(OC(F)(F)F)c(-c4ccc(-c5c[nH]c([C@@H]6C[C@H](C)CN6C(=O)[C@@H](NC(=O)OC)C(C)C)n5)cc4)cc3Cl)cn2)[C@H](C)C1 [Example 1-68] | C (C represents pEC50 between and 9 and about 10, (EC50 between 1 nM and 0.1 nM))
8 | COC(=O)N[C@H](C(=O)N1C[C@@H](C)C[C@H]1c1nc(-c2ccc(-c3cc(Cl)c(NC(=O)c4ccc(N5CCN(C(=O)C6CC6(Cl)Cl)C[C@H]5C)nc4)cc3OC(F)(F)F)cc2)c[nH]1)C(C)C (single isomer, unassigned) [Example 1-56] | D (D represents pEC50>10 (EC50<0.1 nM))
9 | COC(=O)N[C@H](C(=O)N1C[C@@H](C)C[C@H]1c1nc(-c2ccc(-c3cc(Cl)c(NC(=O)c4ccc(N5CCN(C(=O)CC6CC6)C[C@H]5C)nc4)cc3OC(F)(F)F)cc2)c[nH]1)C(C)C [Example 1-98] | C (C represents pEC50 between and 9 and about 10, (EC50 between 1 nM and 0.1 nM))
10 | COC(=O)N[C@H](C(=O)N1C[C@@H](C)C[C@H]1c1nc(-c2ccc(-c3ccc(C(=O)Nc4ccc(N5CCN(C(=O)C6CC6(Cl)Cl)C[C@H]5C)nc4)cc3OC(F)(F)F)cc2)c(Cl)[nH]1)C(C)C (some centres unmarked) [Example 4-30] | C (C represents pEC50 between and 9 and about 10, (EC50 between 1 nM and 0.1 nM))
11 | COC(=O)N[C@H](C(=O)N1C[C@@H](C)C[C@H]1c1nc(-c2ccc(-c3cc(Cl)c(NC(=O)c4ccc(N5CCN(C(=O)c6cn(C)cn6)C[C@H]5C)nc4)cc3OC(F)(F)F)cc2)c[nH]1)C(C)C [Example 1-33] | C (C represents pEC50 between and 9 and about 10, (EC50 between 1 nM and 0.1 nM))
12 | CNC(=O)N1CCC[C@@H]1C(=O)N1C[C@@H](C)N(c2ccc(C(=O)Nc3cc(OC(F)(F)F)c(-c4ccc(-c5c[nH]c([C@@H]6C[C@H](C)CN6C(=O)[C@@H](NC(=O)OC)C(C)C)n5)cc4)cc3Cl)cn2)C[C@@H]1C [Example 1-44] | D (D represents pEC50>10 (EC50<0.1 nM))
13 | COC(=O)N[C@H](C(=O)N1C[C@@H](C)C[C@H]1c1nc(-c2ccc(-c3ccc(C(=O)Nc4ccc(N5CCN(C(=O)[C@H]6CC6(C)C)C[C@H]5C)nc4)cc3)cc2)c[nH]1)C1CCOCC1 [Example 22-2] | D (D represents pEC50>10 (EC50<0.1 nM))
14 | COC(=O)N[C@H](C(=O)N1C[C@@H](C)C[C@H]1c1nc(-c2ccc(-c3cc(F)c(NC(=O)c4ccc(N5CCN(C(=O)NN(C)C)C[C@H]5C)nc4)cc3OC(F)(F)F)cc2)c[nH]1)C(C)C [Example 1-95] | C (C represents pEC50 between and 9 and about 10, (EC50 between 1 nM and 0.1 nM))
15 | COC(=O)N[C@H](C(=O)N1CC(C)(C)C[C@H]1c1nc(-c2ccc(-c3cc(F)c(NC(=O)c4ccc(N5CCN(C(=O)[C@]6(C)CCCN6C(=O)[C@@H](NC(=O)OC)C(C)C)C[C@H]5C)nc4)cc3C(F)(F)F)cc2)c[nH]1)C(C)C [Example 3-2] | D (D represents pEC50>10 (EC50<0.1 nM))

same assay, conditions: Hepatitis C virus, read-out: Genotype 1a, HCV genotype 1a replicon

Row | Structure (SMILES) | EC50 [nM]
16 | [2H]C([2H])([2H])C1(C([2H])([2H])[2H])CC1C(=O)N1CCN(c2ccc(NC(=O)c3ccc(-c4ccc(-c5nc([C@@H]6C[C@H](N(C)C)CN6C(=O)[C@@H](NC(=O)OC)C(C)C)[nH]c5Cl)cc4)c(OC(F)(F)F)c3)cn2)[C@H](C)C1 (some centres unmarked) [Example 6-17] | < 0.1
17 | COC(=O)N[C@H](C(=O)N1C[C@@H](C)C[C@H]1c1nc(-c2ccc(-c3cc(F)c(NC(=O)c4ccc(N5CCN(C(=O)C(C)(C)CO)C[C@H]5C)nc4)cc3OC(F)(F)F)cc2)c[nH]1)C(C)(C)O [Example 13-23] | < 0.1
18 | COC(=O)N[C@H](C(=O)N1CC(C)(C)C[C@H]1c1nc(-c2ccc(-c3ccc(C(=O)Nc4ccc(N5CCN(C(=O)[C@]6(C)CCCN6C(=O)[C@@H](NC(=O)OC)C(C)C)C[C@H]5C)nc4)cc3OC(F)(F)F)cc2)c[nH]1)C(C)C [Example 6-6] | 0.1 to 1
19 | CNC(=O)N1C[C@@H](C)N(c2ccc(C(=O)Nc3cc(OC(F)(F)F)c(-c4ccc(-c5c[nH]c([C@@H]6C[C@H](C)CN6C(=O)C(C)N(C)C(=O)OC)n5)cc4)cc3Cl)cn2)C[C@@H]1C (some centres unmarked) [Example 7-14] | < 0.1
20 | COC(=O)N[C@H](C(=O)N1C[C@H](OC)C[C@H]1c1nc(-c2ccc(-c3cc(Cl)c(NC(=O)c4ccc(N5CCN(C(=O)C(C)(C)C)C[C@H]5C)nc4)cc3OC(F)(F)F)cc2)c[nH]1)C(C)C [Example 5-19] | < 0.1
21 | COC(=O)NC(C(=O)N1C[C@@H](C)C[C@H]1c1nc(-c2ccc(-c3ccc(C(=O)Nc4ccc(N5CCN(C(=O)C(C)(C)C)C[C@H]5C)nc4)c(F)c3OC(F)(F)F)cc2)c[nH]1)C(C)C (some centres unmarked) [Example 25-1] | 0.1 to 1
22 | COC(=O)N[C@H](C(=O)N1CC(C)(C)C[C@H]1c1nc(-c2ccc(-c3cc(F)c(NC(=O)c4ccc(N5CCN(C(=O)C6CC6)C[C@H]5C)nc4)cc3C(F)(F)F)cc2)c[nH]1)C(C)C [Example 3-3] | 0.1 to 1
23 | COC(=O)N[C@H](C(=O)N1C[C@H](OC)C[C@H]1c1nc(-c2ccc(-c3cc(Cl)c(NC(=O)c4ccc(N5CCN(C(=O)C(C)(C)C)C[C@H]5C)nc4)cc3OC(F)(F)F)cc2)c[nH]1)C1CCOCC1 [Example 5-20] | < 0.1
24 | COC(=O)N[C@H](C(=O)N1C[C@@H](C)C[C@H]1c1nc(-c2ccc(-c3cc(Cl)c(NC(=O)c4ccc(N5CCN(C(=O)C6CC(N)C6)C[C@H]5C)nc4)cc3OC(F)(F)F)cc2)c[nH]1)C(C)C (some centres unmarked) [Example 12-52] | 0.1 to 1
25 | COC(=O)N[C@H](C(=O)N1C[C@@H](S(C)(=O)=O)C[C@H]1c1nc(-c2ccc(-c3ccc(C(=O)Nc4ccc(N5CCN(C(=O)C(C)(C)C)C[C@H]5C)nc4)cc3OC(F)(F)F)cc2)c[nH]1)C(C)C [Example 6-22] | 1 to 10
26 | COC(=O)N[C@H](C(=O)N1CC2(C[C@H]1c1nc(-c3ccc(-c4ccc(NC(=O)c5ccc(N6CCN(C(=O)[C@]7(C)CCCN7C(=O)[C@@H](NC(=O)OC)C(C)C)C[C@H]6C)nc5)cc4OC(F)(F)F)cc3)c[nH]1)OCCO2)C(C)C [Example 5-1] | < 0.1
27 | CCN(CC)C(C(=O)N1C[C@@H](C)C[C@H]1c1nc(-c2ccc(-c3cc(Cl)c(NC(=O)c4ccc(N5C[C@H](C)N(C(=O)NC)C[C@H]5C)nc4)cc3OC(F)(F)F)cc2)c[nH]1)c1ccccc1 (some centres unmarked) [Example 7-12] | < 0.1
28 | COC(=O)N[C@H](C(=O)N1C[C@@H](C)C[C@H]1c1nc(-c2ccc(-c3cc(Cl)c(NC(=O)c4ccc(N5CCN(C(=O)C6CC(CO)C6)C[C@H]5C)nc4)cc3OC(F)(F)F)cc2)c[nH]1)C(C)C (some centres unmarked) [Example 12-55] | < 0.1
29 | COC(=O)NC(C(=O)N1C[C@@H](C)C[C@H]1c1nc(-c2ccc(-c3cc(Cl)c(NC(=O)c4ccc(N5CCN(C(=O)C(C)(C)C)C[C@H]5C)nc4)cc3OC(F)(F)F)cc2)c[nH]1)C1CCS(=O)(=O)CC1 (some centres unmarked) [Example 13-36] | 1 to 10
